# Where “and” joins values, the source holds several entries; their conditions need not be identical. Identical values can stand only once.
# What was measured:
# Settings in all cases: incubation time: 72 h
# MFM-223 [1] = experiment: normalised viability (% of control), CellTiter-Blue; higher = more viable cells (100 = DMSO, 0 = benzethonium chloride kill control)
# Protocol: (§1)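 DSRT, CellTiter-Blue viability, 72 h incubation. Signal is normalised to DMSO and benzethonium chloride controls. Value is the normalised response at dose 1.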
# HCC1937 [2] = experiment: as above
# Protocol: as §1
# DU-4475 [3] = experiment: as above
# Protocol: as §1
# SK-BR-3 [4] = experiment: as above
# Protocol: as §1
# HDQ-P1 [5] = experiment: as above
# Protocol: as §1
# MDA-MB-231 [6] = experiment: as above
# Protocol: as §1
# MDA-MB-453 [7] = experiment: as above
# Protocol: as §1
# CAL-85-1 [8] = experiment: as above
# Protocol: as §1
# HCC1143 [9] = experiment: as above
# Protocol: as §1
# Hs578T [10] = experiment: as above
# Protocol: as §1
# CAL-148 [11] = experiment: as above
# Protocol: as §1
# HCC1599 [12] = experiment: as above
# Protocol: as §1
# CAL-51 [13] = experiment: as above
# Protocol: as §1
# CAL-120 [14] = experiment: as above
# Protocol: as §1
# MDA-MB-468 [15] = experiment: as above
# Protocol: as §1
# MFM-223 [16] = experiment: normalised response (% of control), CellTiter-Glo; higher = more viable cells (100 = DMSO, 0 = benzethonium chloride kill control)
# In short: (§2)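 Normalised signals at single concentrations make up the values. They come from breast cancer cell lines seeded (20 µl suspension) into 384-well plates with compound at 5 concentrations in 10-fold steps over a compound-specific 10,000-fold range, incubated 72 h, and read for CellTox Green fluorescence then CellTiter-Glo luminescence. Each plate was normalised to 0.1 % DMSO (100) and a positive kill control (0).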
# HCC1937 [17] = experiment: as above
# In short: as §2
# BT-474 = experiment: as above
# In short: as §2
# DU-4475 [18] = experiment: as above
# In short: as §2
# BT-549 = experiment: as above
# In short: as §2
# SK-BR-3 [19] = experiment: as above
# In short: as §2
# HDQ-P1 [20] = experiment: as above
# In short: as §2
# MDA-MB-231 [21] = experiment: as above
# In short: as §2
# MDA-MB-453 [22] = experiment: as above
# In short: as §2
# CAL-85-1 [23] = experiment: as above
# In short: as §2
# HCC1143 [24] = experiment: as above
# In short: as §2
# Hs578T [25] = experiment: as above
# In short: as §2
# CAL-148 [26] = experiment: as above
# In short: as §2
# HCC1599 [27] = experiment: as above
# In short: as §2
# MCF-10A = experiment: as above
# In short: as §2
# CAL-51 [28] = experiment: as above
# In short: as §2
# CAL-120 [29] = experiment: as above
# In short: as §2
# MDA-MB-468 [30] = experiment: as above
# In short: as §2
# MDA-MB-436 = experiment: as above
# In short: as §2
smiles,measurement,setting,value
CCCCCOC(=O)Nc1nc(=O)n([C@@H]2O[C@H](C)[C@@H](O)[C@H]2O)cc1F [Capecitabine] (1 nM),normalised viability,MFM-223 [1],88.8% and 95.7%
same,normalised viability,HCC1937 [2],84.3% and 85%
same,normalised viability,DU-4475 [3],108% and 102%
same,normalised viability,SK-BR-3 [4],117% and 92.1%
same,normalised viability,HDQ-P1 [5],85.1% and 91.7%
same,normalised viability,MDA-MB-231 [6],94.7% and 83.7%
same,normalised viability,MDA-MB-453 [7],102% and 97.9%
same,normalised viability,CAL-85-1 [8],86.7% and 109%
same,normalised viability,HCC1143 [9],93.5% and 107%
same,normalised viability,Hs578T [10],105% and 96.7%
same,normalised viability,CAL-148 [11],106% and 102%
same,normalised viability,HCC1599 [12],88.8% and 111%
same,normalised viability,CAL-51 [13],106% and 99.2%
same,normalised viability,CAL-120 [14],85.3% and 96.5%
same,normalised viability,MDA-MB-468 [15],106% and 115%
same,normalised response,MFM-223 [16],98.2%
same,normalised response,HCC1937 [17],98.2%
same,normalised response,BT-474,95.2%
same,normalised response,DU-4475 [18],99.7%
same,normalised response,BT-549,107%
same,normalised response,SK-BR-3 [19],110%
same,normalised response,HDQ-P1 [20],102%
same,normalised response,MDA-MB-231 [21],102%
same,normalised response,MDA-MB-453 [22],113%
same,normalised response,CAL-85-1 [23],96.8%
same,normalised response,HCC1143 [24],96.8%
same,normalised response,Hs578T [25],102%
same,normalised response,CAL-148 [26],106%
same,normalised response,HCC1599 [27],95.5%
same,normalised response,MCF-10A,94.5%
same,normalised response,CAL-51 [28],67.8%
same,normalised response,CAL-120 [29],94.6%
same,normalised response,MDA-MB-468 [30],103%
same,normalised response,MDA-MB-436,88.7%

# Reference: the supplement of paper PMC4862054
